Test results taken from US20260199287A1, “LIPO-HYDROXAMIC ACID DERIVATIVE AND PHARMACEUTICAL USE THEREOF” (MediciBIO Co., Ltd, priority 2022, published 2026).

Key:
[1] = system: human corneal endothelial cells; assay: In vitro antioxidant activity, ROS-Glo H2O2 assay in corneal dystrophy-like environment; type: cell-based; conditions: compared to control group (corneal dystrophy-mimicking: UV 5 J/cm^2 + TGF-β1 10 ng/ml); sample 4 h before induction
Method: PriNeu I medium, which is a serum-free medium, was supplemented with 10% fetal bovine serum, human epidermal growth factor (EGF), human vascular endothelial growth factor (VEGF), human insulin, human transferrin, sodium selenite, hydrocortisone, heparin, R estradiol, L-glutamine, penicillin/streptomycin, and G418 (geneticin). Human corneal endothelial cells (purchased from Creative Biolabs (NY, USA)) were seeded onto culture dishes coated with FNC Coating Mix (Athena Environmental Science, MD, USA) and incubated at 37° C. in a humidified 5% CO2 atmosphere.
To establish an intracellular environment similar to that of cells affected by corneal dystrophy (hereinafter referred to as “corneal dystrophy-like environment”), cellular signaling pathways involving reactive oxygen species (ROS) and transforming growth factor-beta (TGF-β), both known to be associated with corneal dystrophy, were activated. Human corneal endothelial cells were first cultured in standard medium for 24 hours, after which the medium was replaced with serum-free PriNeu I medium. The cells were then irradiated at an intensity of 5 J/cm^2 using a UV irradiation (BLX-Link, Vilber, France). Subsequently, the cells were treated with recombinant human TGF-β1 protein at a concentration of 10 ng/ml (Bon Opus, NJ, USA).
To determine the effect of the above-prepared lipo-hydroxamic acid derivatives on oxidative stress activity in corneal endothelial cells, human corneal endothelial cells were cultured at 1.5×10^4 cells per well in a 96-well plate coated with FNC Coating Mix for 18 to 24 hours. Subsequently, the cells were treated with the test samples (Samples 1, 3, and 5). […] The oxidative stress activity was determined by measuring the level of hydrogen peroxide (hereinafter referred to as “H2O2”) in the cell culture medium using the ROS-Glo™ H2O2 Assay (Promega, WI, USA) according to the manufacturer's instructions. The luminescence intensity was measured using the GloMax® Discover microplate reader (Promega) at an excitation wavelength of 485 nm and an emission wavelength of 520-530 nm.

Nrf2 = Nrf2 protein expression in corneal tissue in vivo (Western blot); design: species or system rat; conditions: 0.1% and 0.3% eye drops; compared to control (0.02% benzalkonium)
Method: To identify a mechanism of antioxidant activity of the lipo-hydroxamic acid derivative prepared above, Western blot was performed to detect protein expression of nuclear factor erythroid-2-related factor 2 (Nrf2; NCBI Gene ID: 4780) which is an antioxidant transcription factor. First, human corneal endothelial cells were cultured at 3×10^5 cells per well in a 6-well plate coated with FNC Coating Mix for 18 to 24 hours, and the samples were treated. Four hours after the sample treatment, the corneal dystrophy-like environment was induced in accordance with the method described in Example 3-2. […] Protein concentration in the supernatant was determined using a BCA kit (Thermo Fisher Scientific, MA, USA). […]
To determine the effect of the sample on oxidative stress, animal experiments were conducted using Sprague-Dawley rats (purchased from Bio Link). […] To determine whether oxidative stress was induced, the H2O2 level, an indicator of oxidative stress, was measured in the anterior aqueous humor and corneal tissue using the Amplex Red Hydrogen Peroxide/Peroxidase assay kit (Invitrogen, MA, USA) according to the manufacturer's instructions. Afterwards, the animal model received 10 μL drops (single dose) of the sample (Sample 1) at a dose of 0.1% or 0.3% for 24 hours, including pretreatment, three times a day for 3 days, and then the H2O2 level in the anterior aqueous humor was measured. […]

collagen I = assay: Real-time PCR, collagen I mRNA; type: cell-based, human; conditions: corneal dystrophy-like environment
Method: (§1) To identify the antioxidant mechanism of the lipo-hydroxamic acid derivative prepared above, real-time PCR was performed to detect the mRNA expression levels of the antioxidant enzymes downstream of Nrf2. First, human corneal endothelial cells were cultured at 3×10^5 cells per well in a 6-well plate coated with FNC Coating Mix for 18 to 24 hours, and the samples were treated. Four hours after the sample treatment, the corneal dystrophy-like environment was induced using the same method as described in Example 3-2. Twenty-four hours after inducing the corneal dystrophy-like environment, RNA was isolated from the cells using an RNA extraction kit (Bioneer, Daejeon), and cDNA was synthesized from […] of RNA using RT PreMix (Bioneer). Subsequently, real-time PCR was performed using GoTaq mater mix (Promega) containing SYBR green solution at 95° C. for 2 minutes, followed by 35 cycles at 95° C. for 15 seconds and at 60° C. for 1 minute.
To identify the effect of the lipo-hydroxamic acid derivative prepared above on the expression of fibrosis- and cellular degeneration-related factors in corneal endothelial cells, real-time PCR was performed to detect mRNA expression levels of the fibrosis marker N-cadherin, and the cellular degeneration markers collagen I and fibronectin. The real-time PCR was performed in the same manner as in Example 5-2 above.

NQO-1 = assay: Real-time PCR, NQO-1 mRNA; type: cell-based, human; conditions: corneal dystrophy-like environment
Method: as §1

O=C(CCCCC1CCSS1)NOCCO (stereo not shown) [Sample 1, 5-[1,2]dithiolan-3-yl-pentanoic acid (2-hydroxy-ethoxy)-amide]
oxidative stress (H2O2 level in cell culture medium) [1]: significantly decreased
Nrf2 expression in corneal tissue (Nrf2): significantly increased depending on the concentration of the sample
mRNA expression of collagen I (collagen I): significantly decreased in a concentration-dependent manner
mRNA expression of NQO-1 (NQO-1): significantly increased
